Reference: patent publication US10561638B2, “Methods for treating dependence” (Biotie Therapies, Inc., priority 2007, dated 2020)

How the values were obtained:
plasma renin activity = experiment: Plasma renin activity in SHRs; assay type: in vivo, spontaneously hypertensive rats; settings: 30 and 100 mg/kg/d p.o. for 5 days
Source text: The potency relationships in the left ventricle and mesenteric artery resulting from these in vivo studies strongly parallel those obtained from in vitro studies using purified DBH (see above). […] It was therefore of interest to assess whether decreasing norepinephrine levels with nepicastat would result in a decrease in plasma renin activity.

[1] = biological target: T1, bovine dopamine β-hydroxylase (Bos taurus, UniProt P15101); experiment: DBH assay, conversion of tyramine to octopamine; assay type: biochemical
T1 construct: Bovine DBH from adrenal glands was obtained from Sigma Chemical Co; purchased Sigma Chemicals (St Louis, Mo., USA); host or cells: bovine adrenal glands
T1 sequence (P15101 1-610): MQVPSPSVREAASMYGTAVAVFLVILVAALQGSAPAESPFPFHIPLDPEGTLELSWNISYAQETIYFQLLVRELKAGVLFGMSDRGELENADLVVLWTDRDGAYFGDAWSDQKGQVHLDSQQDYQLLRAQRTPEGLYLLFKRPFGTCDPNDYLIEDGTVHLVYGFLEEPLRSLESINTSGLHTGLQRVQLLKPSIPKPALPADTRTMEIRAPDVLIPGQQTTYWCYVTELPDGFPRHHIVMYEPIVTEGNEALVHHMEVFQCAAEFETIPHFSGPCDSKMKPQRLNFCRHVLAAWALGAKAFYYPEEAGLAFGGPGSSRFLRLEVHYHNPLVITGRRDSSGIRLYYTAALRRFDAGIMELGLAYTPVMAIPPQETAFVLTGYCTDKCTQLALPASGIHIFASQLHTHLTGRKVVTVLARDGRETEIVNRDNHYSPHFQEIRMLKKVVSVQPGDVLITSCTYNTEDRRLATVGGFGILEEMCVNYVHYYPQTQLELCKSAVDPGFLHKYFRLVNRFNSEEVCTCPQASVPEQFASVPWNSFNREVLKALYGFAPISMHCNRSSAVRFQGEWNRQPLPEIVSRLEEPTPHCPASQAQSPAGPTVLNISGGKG
Procedure: Bovine and human dopamine β-hydroxylase activity were assayed by measuring the conversion of tyramine to octopamine. Bovine adrenal dopamine β-hydroxylase was obtained from Sigma Chemicals (St Louis, Mo., USA) whereas human dopamine β-hydroxylase was purified from the culture medium of the neuroblastoma cell line SK-N-SH. The assay was performed at pH 5.2 and 32° C. in a medium containing 0.125 M NaAc, 10 mM fumarate, 0.5-2 μM CuSO4, 0.1 mg·ml^−1 catalase, 0.1 mM tyramine and 4 mM ascorbate. In a typical assay, 0.5-1 milliunits of enzyme were added to the reaction mixture and, subsequently, a substrate mixture containing catalase, tyramine and ascorbate was added to initiate the reaction (final volume of 200 μl). Samples were incubated with or without the appropriate concentration of nepicastat or Compound B at 37° C. for 30 to 40 minutes. The reaction was quenched by the stop solution containing 25 mM EDTA and 240 μM 3-hydroxytyramine (internal standard). The samples were analyzed for octopamine by reverse phase high pressure liquid chromatography (HPLC) using ultraviolet-detection at […]. The HPLC chromatography run was carried out at the flow rate of 1 ml·min^−1 using a LiChroCART 125-4 RP-18 column and isocratic elution with 10 mM acidic acid, 10 mM 1-heptane sulfonic acid, 12 mM tetrabutyl ammonium phosphate and 10% methanol. The remaining percent activity was calculated based on controls, corrected using internal standards and fitted to a non-linear four-parameter concentration-response curve.
DBH activity was assayed by measuring the conversion of tyramine to octopamine. […] The samples were analyzed for octopamine by reverse phase HPLC using UV detection at […]. The remaining percent activity was calculated based on controls (without inhibitor), corrected using internal standards and fitted to a non-linear 4-parameter concentration-response curve to obtain IC50 values.
An HPLC assay was used to measure DBH activity using tyramine and ascorbate as substrates. […] The samples (150 μl) were loaded to a Gilson autosampler and analyzed by HPLC using UV detection at 280 nm. […]

[2] = in vivo
Procedure: The pharmacokinetics of nepicastat after a single 40 mg dose was compared in men and women.

[3] = system: normotensive Wistar-Kyoto rats; experiment: Blood pressure in conscious, restrained Wistar-Kyoto rats; assay type: in vivo; settings: 10 mg/kg
Source text: To summarize together, nepicastat causes a decrease in blood pressure in both SHRs and normotensive rats, though the antihypertensive effect is more pronounced in SHRs.

Row | Structure (SMILES) | plasma renin activity (plasma renin activity) | potency of nepicastat relative to Compound B ([1]; bovine DBH) [fold] | potency of nepicastat relative to SKF-102698 ([1]; bovine enzyme) [fold] | AUC, greater in women than in men ([2]; both, human, 40 mg) | Cmax, greater in women than in men ([2]; both, human, 40 mg) | Tmax for the radioactivity in plasma ([2]; human) [h] | terminal T1/2 for total radioactivity in plasma ([2]; human) [h] | Cmax or AUC, fast vs slow acetylator phenotype [2] | T½, women vs men [2] | accumulation with multiple dosing [2] | decrease in blood pressure 4 hours after dosing [3] [mmHg] | IC50 ([1]; 0.1 mM tyramine, 4 mM ascorbate, pH 5.2) [nM]
1 | Cl.NCc1c[nH]c(=S)n1[C@H]1CCc2c(F)cc(F)cc2C1 [nepicastat, (S)-5-Aminomethyl-1-(5,7-difluoro-1,2,3,4-tetrahydronaphth-2-yl)-2,3-dihydro-2-thioxo-1H-imidazole hydrochloride] | did not alter plasma renin activity | 3 | 8 | approximately 43% | approximately 23% | 1 to 2 | ~100 | No significant differences | longer in women than in men | no significant accumulation | −13 | 
2 | Fc1cc(F)cc(Cn2cc[nH]c2=S)c1 [SKF-102698, reference compound] |  |  |  |  |  |  |  |  |  |  |  | 67 ± 4.2
